The target in assay [1] is SARS-CoV-2 Main Protease (SARS-CoV-2) (UniProt P0DTD1). The note with it: for inhibition: 50.0 µM.
Assay [2] shares this target.

Each structure is given as a SMILES string.

`O=C(Cc1cccc(Cl)c1)Nc1cnccc1-c1ccccc1` gave an IC50 in assay [1] of 25.1 µM. As for `CC[P](CC)(CC)=[Au][S][C@@H]1O[C@H](COC(C)=O)[C@@H](OC(C)=O)[C@H](OC(C)=O)[C@H]1OC(C)=O` (stereo in doubt), in assay [1], the inhibition stood at 100%. `CNc1ccc(N(C(=O)Cn2nnc3ccccc32)c2cccc(Cl)c2)cc1` came in with an IC50 in assay [1] of 10.6 µM. In the case of `O=C(c1cc(=O)cc[nH]1)N1CCN(c2cccc(Cl)c2)CC1`, in assay [1], the IC50 was determined as 58.9 µM. For `O=c1c(O)c(-c2cc(OCc3ccccc3)ccc2OCc2ccccc2)oc2ccccc12`, the inhibition in assay [1] stood at 0.254%. `O=C(Nc1cncc2ccccc12)C1=CCCc2ccc(Cl)cc21` returned an IC50 in assay [1] of 0.0811 µM. With `O=C(CC(C[S][Au])C(=O)[O][Na])[O][Na]` (stereo not drawn), in assay [1], the inhibition came out at 39.1%. `Nc1nn(C(=O)C2CCOc3ccc(Cl)cc32)c2ccncc12` (stereo not drawn) had an IC50 in assay [1] of 95.2 µM. Take `O=C(c1cc(=O)[nH]c2ccccc12)N1CCN(Cc2cccc(C(F)(F)F)c2)CC1`: the inhibition in assay [1] came out at 24.8%. Consider `Cc1ccncc1N1CCC(c2cccc(Cl)c2)C1=O` (stereo not drawn), for which the IC50 in assay [1] was determined as 12.9 µM.

Consider `Cc1ccc(NC2=C(c3ccccc3)C(=O)N(Cc3cccnc3)C2=O)cc1C`, for which, in assay [1], the IC50 was determined as 43.5 µM. Still for that read-out and setting: the same measure for `O=C(Nc1cccc(F)c1)[C@@H](c1ccccc1)N1Cc2ccccc2C1=O` (stereo in doubt): 59.9 µM. Regarding `COc1ccc(Cl)cc1OCCNC(=O)c1cc(=O)[nH]c2ccccc12`, in assay [1], the concentration for half-maximal inhibition (IC50) was found to be 0.692 µM.

Regarding `O=C(Cn1nnc2ccccc21)Nc1cccc(Cl)c1`, in assay [1], the IC50 was found to be 29.4 µM and the inhibition is 55.1%. On to `CC(C)(C)c1ccc(N(C(=O)c2ccco2)[C@@H](C(=O)NCCc2cccc(F)c2)c2cccnc2)cc1`, for which, in assay [1], the inhibition is 100%.

`Cc1ccc(NC2=C(c3ccccc3)C(=O)N(Cc3cccnc3)C2=O)c(C)c1` had an IC50 in assay [1] of 54.6 µM. As to `Cc1oncc1C(=O)Nc1ccc(S(F)(F)(F)(F)F)cc1`, the inhibition in assay [1] came to 0%.

As to `O=c1ccc2c3ccc(=O)c4c(O)ccc(c5ccc(O)c1c52)c43`, the inhibition in assay [1] came to 42.5%. For `O=C(c1cc(=O)[nH]c2ccccc12)N1CCN(c2cccc(Cl)c2)CC1`, in assay [1], the IC50 amounted to 2.19 µM and the inhibition came to 65.7%. With `O=C(Nc1cncc2ccccc12)C1CCCc2ccc(Cl)cc21` (stereo not drawn), the 50% inhibitory concentration (IC50) in assay [1] amounted to 0.289 µM. Turning to `Cc1ccncc1NC(=O)Cc1cc(Cl)cc(NCC(C)(C)C#N)c1`, in assay [1], the IC50 worked out at 32.9 µM. In the case of `Cc1ccncc1NC(=O)Cc1cc(Cl)cc(NC2(C)CCC(F)(F)CC2)c1`, the IC50 in assay [1] was found to be 45.5 µM. Take `Cc1ccc(N(Cc2cccc(Cl)c2)C(=O)Cn2nnc3ccccc32)cc1`: the IC50 in assay [1] is 3.3 µM. `Cc1ccn2cnnc2c1NC(=O)Cc1cccc(Cl)c1` showed an IC50 in assay [1] of 83.4 µM. Turning to `COc1ccc2c(=O)cc(-c3cc(OCc4ccccc4)ccc3OC)oc2c1`, in assay [1], the inhibition stood at 1.98%.

Consider `CC(C)[C@H](NC(=O)OCc1ccccc1)C(=O)NC(C=O)Cc1ccccc1` (stereo in doubt), for which the inhibition in assay [1] is 0%. `O=C(Cc1cncc2ccccc12)N1CCOc2ccc(Cl)cc21`: the IC50 in assay [1] is 3.66 µM. In the case of `N#Cc1ccccc1NC(=O)[C@@H](c1ccccc1)N1Cc2ccccc2C1=O` (stereo in doubt), the IC50 in assay [1] was found to be 57.9 µM. `O=C(Cc1cccc(Cl)c1)Nc1cncc2c1CCC2` displayed an IC50 in assay [1] of 4.65 µM. Turning to `COc1ccc2c(=O)c(O)c(-c3ccc(OCc4ccccc4)c(OCc4ccccc4)c3)oc2c1`, in assay [1], the inhibition came to 14.1%. As for `O=C(c1cc(=O)[nH]c2ccccc12)N1CCN(c2cccc(C(F)(F)F)c2)CC1`, in assay [1], the IC50 was found to be 5.65 µM and the inhibition was determined as 71%.

In turn, `Cc1ccncc1NC(=O)C(C)c1cc(Cl)cc(OC2CC(=O)N2)c1` (stereo not drawn) showed an IC50 in assay [1] of 88.1 µM. For `O=C(Cc1cccc(Cl)c1)Nc1cccc2[nH]ncc12`, the IC50 in assay [1] was 23.6 µM. `CC(C)(C)C(=O)C(C#N)C(=O)Nc1ccc(Cl)cc1` (stereo not drawn): the inhibition in assay [1] came out at 0%. On to `Cc1noc(COc2cc(Cl)cc(CC(=O)Nc3cnccc3C)c2)n1`, for which, in assay [1], the IC50 came out at 24.3 µM.

In assay [1], `Cc1ccncc1NC(=O)Cc1cc(C#N)cc(OC2CC(=O)N2)c1` (stereo not drawn) came in with an IC50 of 8.63 µM. Molecule `Cc1ccncc1NC(=O)Cc1cc(Cl)cc(-c2ccc(C)c(F)c2F)c1` came in with an IC50 in assay [1] of 56.2 µM. In the case of `COC(=O)c1sccc1NC(=O)Nc1cn(CC(C)C)c(=O)c2ccccc12`, the inhibition in assay [2] (20.0 µM) was -3.98%; in assay [2] (50.0 µM) it was -0.958%. Take `O=C(NCC1(C(=O)Nc2cncc3ccccc23)CCOc2ccc(Cl)cc21)C1COCCN1CC(F)(F)F` (stereo not drawn): the IC50 in assay [2] is 21.6 µM. Turning to `C[C@@H](Cn1ccc(-c2ccc(C#N)c(Cl)c2)n1)NC(=O)c1cc([C@@H](C)O)[nH]n1` (stereo in doubt), the figures for the inhibition in assay [2] (20.0 µM) and in assay [2] (50.0 µM) were 3.16% and -11.9%, respectively. Turning to `CC(NC(=O)Cc1ccc(-n2cnnn2)cc1)(C(=O)Nc1cncc2ccccc12)c1ccc(Cl)c(Cl)c1` (stereo not drawn), the IC50 in assay [2] came out at 4.64 µM. `CC(C)(C)c1ccc(N(C(=O)c2cccnc2)C(C(=O)NCCc2cccc(F)c2)c2cccnc2)cc1` (stereo not drawn): the inhibition in assay [2] (20.0 µM) was -5.55%; in assay [2] (50.0 µM), -6.34%. Consider `C[C@@H]1CC[C@@H](c2ccoc2)N2C1CC[C@@]1(CS[C@@]3(CC[C@H]4[C@H](C)CC[C@@H](c5ccoc5)N4[C@@H]3O)C1)[C@@H]2O` (stereo in doubt), for which the inhibition in assay [2] (20.0 µM) was -19.4%; in assay [2] (50.0 µM) it was -23.4%. The matching figures for `CC(C)Cn1cc(NC(=O)NCCCN2CCCC2=O)c2ccccc2c1=O`: -2.54% and 3.77%. On to `CC(C)Cn1cc(NC(=O)NCCC2=CCCCC2)c2ccccc2c1=O`, for which the inhibition in assay [2] (20.0 µM) was 25.7%; in assay [2] (50.0 µM) it was 0.931%. For `Nc1cc(C(F)(F)F)c(-c2nc(N3CCOCC3)nc(N3CCOCC3)n2)cn1`, in that order: 5.19% and 5.97%. `COc1cccc2[nH]c(=O)cc(C(=O)NCCOc3ccccc3OCC3CC3)c12` displayed an IC50 in assay [2] of 1.92 µM. In the case of `Cc1cccnc1NC(=O)Nc1cn(CC(C)C)c(=O)c2ccccc12`, the inhibition in assay [2] (20.0 µM) was -0.204%; in assay [2] (50.0 µM), -1.16%. On to `COc1ccccc1OCCNC(=O)c1cc(=O)[nH]c2cccc(OC)c12`, for which the inhibition in assay [2] (20.0 µM) turned out to be 84.4%; in assay [2] (50.0 µM) it was 90.9%.

`COC[C@@]1(C(=O)Nc2cncc3ccccc23)CCOc2cc(Cl)c(Cl)cc21` (stereo in doubt): the IC50 in assay [2] was found to be 16.9 µM. As for `COc1ccc(NC(=O)Nc2cn(C)c(=O)c3ccccc23)c(OC)c1`, the inhibition was 7.06% in assay [2] (20.0 µM) and 17.9% in assay [2] (50.0 µM). As to `O=C(O)CNC(=O)c1ncc(-c2cccc(Cl)c2)cc1O`, the inhibition in assay [2] (20.0 µM) is 1.43%; in assay [2] (50.0 µM), -1.75%. The matching figures for `CCCCN(CCNC(=O)Nc1cn(C)c(=O)c2ccccc12)Cc1ccco1`: 6.22% and 12.5%. As for `Cn1c(-c2ccc(NC(=O)C3CCCCC(=O)N3)cc2)nc2ccccc21` (stereo not drawn), the inhibition in assay [2] (20.0 µM) was -3.33%; in assay [2] (50.0 µM), -2.97%. For the molecule `CC(C)N(C(=O)Cc1c(O)c2ccccc2[nH]c1=O)C(C)C`, the inhibition in assay [2] (20.0 µM) is -0.198%; in assay [2] (50.0 µM), -0.251%. Take `CC(C)Cn1cc(NC(=O)Nc2cccnc2)c2ccccc2c1=O`: the inhibition turned out to be 6.1% in assay [2] (20.0 µM) and 6.63% in assay [2] (50.0 µM).

Regarding `Cc1[nH]c2ncnc(NC(=O)c3cccc4c3oc(=O)n4C)c2c1C`, the inhibition in assay [2] (20.0 µM) came to 2.86%; in assay [2] (50.0 µM) it was 6.1%. Turning to `O=C(OCC(O)CO)c1ccccc1Nc1ccnc2cc(Cl)ccc12` (stereo not drawn), the values for the inhibition in assay [2] (20.0 µM) and in assay [2] (50.0 µM) were 3.82% and -5.01%, respectively. `Cc1[nH]c2ncnc(NC(=O)c3cc4ccccc4c(=O)o3)c2c1C`: the inhibition in assay [2] (20.0 µM) was -7.32%; in assay [2] (50.0 µM) it was -4.98%. In the case of `Cc1cc(Cn2nnc3c(-c4ccco4)nc(N)nc32)ccc1N`, the inhibition in assay [2] (20.0 µM) was 1.89%; in assay [2] (50.0 µM) it was -1.33%. As to `Cn1cc(NC(=O)NCCc2ccc(Cl)cc2)c2ccccc2c1=O`, the inhibition was -6.47% in assay [2] (20.0 µM) and -3.22% in assay [2] (50.0 µM).

Consider `CC1(C)CN(C(=O)c2ccc(-c3cccc4nc(NC(=O)C5CC5)nn34)cc2)C1`, for which the inhibition in assay [2] (20.0 µM) was -1.13%; in assay [2] (50.0 µM) it was 0.838%. On to `Cc1noc(C)c1CCNC(=O)Nc1cn(CC(C)C)c(=O)c2ccccc12`, for which the inhibition stood at 39% in assay [2] (20.0 µM) and 94.5% in assay [2] (50.0 µM).

In the case of `CC(C)Cn1cc(NC(=O)NCCc2c[nH]c3ccccc23)c2ccccc2c1=O`, the inhibition amounted to 1.66% in assay [2] (20.0 µM) and 6.69% in assay [2] (50.0 µM). Regarding `O=C(Nc1c[nH]nc1-c1ccccn1)c1cccc2nccn12`, the inhibition in assay [2] (20.0 µM) came to 2.59%; in assay [2] (50.0 µM) it was 9.01%. Regarding `Cc1ccn2cnnc2c1NC(=O)C1CCOc2ccccc21` (stereo not drawn), the inhibition was -11.2% in assay [2] (20.0 µM) and -4.74% in assay [2] (50.0 µM). With `COc1cc(Cl)c(C)cc1NC(=O)Nc1cn(CC(C)C)c(=O)c2ccccc12`, the inhibition in assay [2] (20.0 µM) was determined as 5.7%; in assay [2] (50.0 µM), 9.03%.

For the molecule `COc1cc2c(cc1OC)C(C)N(C(=O)Nc1cn(C)c(=O)c3ccccc13)CC2` (stereo not drawn), the figures for the inhibition in assay [2] (20.0 µM) and in assay [2] (50.0 µM) were 51.2% and 5.23%, respectively. For `CC(C)CCC(=O)C[C@H]1c2ccccc2C(=O)N1c1ccc2ccc(Cl)nc2n1` (stereo in doubt), the inhibition in assay [2] (20.0 µM) is 4.26%; in assay [2] (50.0 µM), -0.676%.

For the molecule `CC1Cn2nccc2CN1C(=O)CC1(C(=O)Nc2cncc3ccccc23)CCOc2ccc(Cl)cc21` (stereo not drawn), the IC50 in assay [2] came out at 2.11 µM. For the molecule `Cn1nc(C(=O)NC(C)(C(=O)Nc2cncc3ccccc23)c2ccc(Cl)c(Cl)c2)cc1C#N` (stereo not drawn), in assay [2], the IC50 is 10.3 µM. As to `O=C(Cn1ccnc1[N+](=O)[O-])NCc1ccccc1`, the inhibition is -7.12% in assay [2] (20.0 µM) and 4.09% in assay [2] (50.0 µM). With `Cn1cnc(CN(C(=O)c2cnnn2-c2ccccc2)c2ccc(OCc3ccccc3)cc2)c1`, the inhibition is -1.63% in assay [2] (20.0 µM) and 1.89% in assay [2] (50.0 µM). For the molecule `COc1ccc(NC(=O)Nc2cn(C)c(=O)c3ccccc23)cc1OC`, the inhibition in assay [2] (20.0 µM) was 1.6%; in assay [2] (50.0 µM), 10.8%.

As for `O=C(Nc1cncc2ccccc12)[C@@H]1CCNc2cc(Cl)c(Cl)cc21` (stereo in doubt), in assay [2], the IC50 was determined as 0.05 µM. Turning to `COC(=O)c1c(C)nn(-c2ccccc2)c1-c1cc(C)on1`, the inhibition was 18.8% in assay [2] (20.0 µM) and 3.16% in assay [2] (50.0 µM). For `CCOC(=O)c1ccc(NC(=O)Nc2cn(C)c(=O)c3ccccc23)cc1`, in that order: 17.1% and 4.9%.

One may read the IC50 as the point on the concentration scale where inhibition reaches its midpoint. The low end stands for inhibition by little substance, the high end for a need for much substance. What is called inhibition is the drop in the measured response relative to a control, in per cent.

The values are drawn from the COVID Moonshot data (paper PMC11187573), “Identification of SARS-CoV-2 Mpro inhibitors through deep reinforcement learning for de novo drug design and computational chemistry approaches” (RSC Medicinal Chemistry, 2024).
